Results: US20230365592A1 (Agios Pharmaceuticals, Inc., priority 2022, published 2023)

What follows are compounds tested against T1, human PAH with the R408W mutation (Homo sapiens, UniProt P00439, R408W) (assay: Cell Based Phenylalanine Flux Assay). Conditions: A375 cells expressing R408W PAH; 24 hrs with compound, then 20 µM sepiapterin and 800 µM 13C9,15N-Phenylalanine for 4 hours; 13C-Tyrosine by LC-MS; average where tested multiple times; read-out: AC50.
T1 construct: expressed in transfected cells
T1 sequence (P00439 1-452 R408W): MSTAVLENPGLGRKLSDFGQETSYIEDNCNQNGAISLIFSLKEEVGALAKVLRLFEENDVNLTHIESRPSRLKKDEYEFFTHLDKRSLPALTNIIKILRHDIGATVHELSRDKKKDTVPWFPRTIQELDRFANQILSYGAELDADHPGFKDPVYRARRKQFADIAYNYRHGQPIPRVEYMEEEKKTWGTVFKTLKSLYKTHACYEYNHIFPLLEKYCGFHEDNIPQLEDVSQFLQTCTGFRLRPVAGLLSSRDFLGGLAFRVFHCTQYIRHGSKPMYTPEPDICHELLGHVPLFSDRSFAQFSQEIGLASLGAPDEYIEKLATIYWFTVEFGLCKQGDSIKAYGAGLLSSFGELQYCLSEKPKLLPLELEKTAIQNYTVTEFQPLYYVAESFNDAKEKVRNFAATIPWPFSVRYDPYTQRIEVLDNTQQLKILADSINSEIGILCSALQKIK
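Further: after compound treatment, cells received sepiapterin plus isotope-labelled Phenylalanine for 4 hours, then labelled Tyrosine in the medium was quantified, 10-point 2-fold dilution series run in duplicate.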

| AC50 | SMILES |
| --- | --- |
| 1000 to 5000 nM | CC(O)c1nnc(C(=O)N2CCc3[nH]cnc3C2c2cc3ccccn3n2)o1 [4S enantiomer of (1R)-1-{5-[4-{pyrazolo[1,5-a]pyridin-2-yl}-] |
| 1000 to 5000 nM | CCn1cnnc1C(=O)N1CCc2[nH]cnc2C1c1cc2ccccn2n1 (stereo not shown) |
| > 5000 nM | CC(C)(O)c1nc(C(=O)N2CCc3[nH]cnc3C2c2cc3ccccn3n2)no1 (stereo not shown) |

Further lines, the compound ahead of its results:

| SMILES | AC50 |
| --- | --- |
| O=C(c1nnc(C2CC(F)(F)C2)o1)N1CCc2[nH]cnc2C1c1cc2cccc(C(F)F)n2n1 (stereo not shown) | 1000 to 5000 nM |
| Cc1cccc2cc(C3c4nc[nH]c4CCN3C(=O)c3nc(C(F)F)nn3C)nn12 (stereo not shown) | 1000 to 5000 nM |
| Cc1cccn2nc(C3c4nc[nH]c4CCN3C(=O)c3oc(-c4ccccn4)nc3C(F)F)cc12 (stereo not shown) | 1000 to 5000 nM |
| Cn1cnc(-c2nnc(C(=O)N3CCc4[nH]cnc4[C@H]3c3cc4cccc(C(F)F)n4n3)o2)c1 (single isomer, unassigned) | 1000 to 5000 nM |
| COc1ccc2c(C(=O)N3CCc4[nH]cnc4C3c3cc4c(OC)cccn4n3)cnn2c1 (stereo not shown) | 1000 to 5000 nM |
| CC(C)c1nnc(C(=O)N2CCc3[nH]cnc3C2c2cc3c(C(F)F)cccn3n2)o1 (stereo not shown) | > 5000 nM |
| CC(C)c1cccn2nc(C3c4nc[nH]c4CCN3c3cnccn3)cc12 (stereo not shown) | > 5000 nM |
| FC(F)(F)c1cccn2nc([C@@H]3c4nc[nH]c4CCN3c3nnc(-c4ncccn4)o3)cc12 (single isomer, unassigned) | 1000 to 5000 nM |
| Cn1cc(-c2ccc3c(C(=O)N4CCc5[nH]cnc5C4c4cc5ccccn5n4)cnn3c2)cn1 (stereo not shown) | 1000 to 5000 nM |
| O=C(c1nnc(-c2ncccn2)o1)N1CCc2[nH]cnc2C1c1cc2cccc(C(F)(F)F)n2n1 (stereo not shown) | 1000 to 5000 nM |

Same assay, conditions: A375 cells expressing human PAH R408W; 24 hrs compound incubation; 13C-Tyrosine by LC-MS; average where tested multiple times; read-out: AC50

| AC50 | SMILES |
| --- | --- |
| 1000 to 5000 nM | O=C(c1nnc(-c2cnn(C(F)(F)F)c2)o1)N1CCc2[nH]cnc2[C@H]1c1cc2c(OC(F)F)cccn2n1 [Example 2458, (S)-(4-(4-(difluoromethoxy)pyrazolo[1,5-a]pyridin-2-yl)-6,7-dihydro-1H-imidazo[4,5-c]pyridin-5(4H)-yl)(5-(1-(trifluoromethyl)-1H-pyrazol-4-yl)-1,3,4-oxadiazol-2-yl)methanone] |
| 1000 to 5000 nM | FC(F)(F)c1cccn2nc([C@@H]3c4nc[nH]c4CCN3c3nnc(C4CCC4)o3)cc12 [Example 2482, (S)-2-cyclobutyl-5-(4-(4-(trifluoromethyl)pyrazolo[1,5-a]pyridin-2-yl)-6,7-dihydro-1H-imidazo[4,5-c]pyridin-5(4H)-yl)-1,3,4-oxadiazole] |
| 500 to 1000 nM | Cc1cccnc1-c1nnc(N2CCc3[nH]cnc3[C@H]2c2cc3cccc(C)n3n2)o1 [Example 2309, (S)-2-(4-(7-methylpyrazolo[1,5-a]pyridin-2-yl)-1,4,6,7-tetrahydro-5H-imidazo[4,5-c]pyridin-5-yl)-5-(3-methylpyridin-2-yl)-1,3,4-oxadiazole] |
| 500 to 1000 nM | Cc1cccn2nc([C@@H]3c4nc[nH]c4CCN3C(=O)c3cnc(-c4cnccn4)o3)cc12 [Example 2240, (S)-(4-(4-methylpyrazolo[1,5-a]pyridin-2-yl)-1,4,6,7-tetrahydro-5H-imidazo[4,5-c]pyridin-5-yl)(2-(pyrazin-2-yl)oxazol-5-yl)methanone] |
| < 500 nM | FC(F)c1cccn2nc([C@@H]3c4nc[nH]c4CCN3c3cnccn3)cc12 [Example 1817, (S)-4-(4-(difluoromethyl)pyrazolo[1,5-a]pyridin-2-yl)-5-(pyrazin-2-yl)-4,5,6,7-tetrahydro-1H-imidazo[4,5-c]pyridine] |

Same assay, conditions: A375 cells expressing human R408W PAH; 24 hrs compound incubation; 13C-Tyrosine by LC-MS; average where tested multiple times; read-out: AC50

| AC50 | SMILES |
| --- | --- |
| 500 to 1000 nM | CC(C)c1nnc(C(=O)N2CCc3[nH]cnc3[C@H]2c2cc3ccccn3n2)o1 [Example 1448, (S)-(5-isopropyl-1,3,4-oxadiazol-2-yl)(4-(pyrazolo[1,5-a]pyridin-2-yl)-6,7-dihydro-1H-imidazo[4,5-c]pyridin-5(4H)-yl)methanone] |
| < 500 nM | CC(C)(C)c1nnc(C(=O)N2CCc3[nH]cnc3[C@H]2c2cc3c(C(F)F)cccn3n2)o1 [Example 1409, (S)-(5-(tert-butyl)-1,3,4-oxadiazol-2-yl)(4-(4-(difluoromethyl)pyrazolo[1,5-a]pyridin-2-yl)-6,7-dihydro-1H-imidazo[4,5-c]pyridin-5(4H)-yl)methanone] |
| 1000 to 5000 nM | CC(C)(O)c1nc(Br)c(C(=O)N2CCc3[nH]cnc3[C@@H]2c2cc3c(Cl)cccn3n2)o1 [Example 723, (R)-(4-bromo-2-(2-hydroxypropan-2-yl)oxazol-5-yl)(4-(4-chloropyrazolo[1,5-a]pyridin-2-yl)-6,7-dihydro-1H-imidazo[4,5-c]pyridin-5(4H)-yl)methanone] |
| < 500 nM | Cc1c([C@@H]2c3nc[nH]c3CCN2C(=O)c2oc(C(C)(C)O)nc2C(F)F)nn2ccccc12 [Example 786, (S)-(4-(difluoromethyl)-2-(2-hydroxypropan-2-yl)oxazol-5-yl)(4-(3-methylpyrazolo[1,5-a]pyridin-2-yl)-6,7-dihydro-1H-imidazo[4,5-c]pyridin-5(4H)-yl)methanone] |
| 1000 to 5000 nM | O=C(c1nnc(-c2cnn(C(F)F)c2)o1)N1CCc2[nH]cnc2[C@H]1c1cc2ccccn2n1 [Example 650, (S)-(5-(1-(difluoromethyl)-1H-pyrazol-4-yl)-1,3,4-oxadiazol-2-yl)(4-(pyrazolo[1,5-a]pyridin-2-yl)-6,7-dihydro-1H-imidazo[4,5-c]pyridin-5(4H)-yl)methanone] |
| > 5000 nM | Cn1cc(C(=O)N2CCc3[nH]cnc3[C@@H]2c2cc3ccccn3n2)c(Cl)n1 [Example 664, (R)-(3-chloro-1-methyl-1H-pyrazol-4-yl)(4-(pyrazolo[1,5-a]pyridin-2-yl)-6,7-dihydro-1H-imidazo[4,5-c]pyridin-5(4H)-yl)methanone] |
| > 5000 nM | CC(C)(F)c1nnc(C(=O)N2CCc3[nH]cnc3[C@@H]2c2cc3c(C(F)F)cccn3n2)o1 [Example 1351, (R)-(4-(4-(difluoromethyl)pyrazolo[1,5-a]pyridin-2-yl)-6,7-dihydro-1H-imidazo[4,5-c]pyridin-5(4H)-yl)(5-(2-fluoropropan-2-yl)-1,3,4-oxadiazol-2-yl)methanone] |
| 1000 to 5000 nM | O=C(c1nnc(-c2cccnc2)o1)N1CCc2[nH]cnc2[C@@H]1c1cc2ccccn2n1 [Example 1347, (R)-(4-(pyrazolo[1,5-a]pyridin-2-yl)-6,7-dihydro-1H-imidazo[4,5-c]pyridin-5(4H)-yl)(5-(pyridin-3-yl)-1,3,4-oxadiazol-2-yl)methanone] |
| 1000 to 5000 nM | Cn1ncnc1C(=O)N1CCc2[nH]cnc2[C@@H]1c1cc2c(F)cccn2n1 [Example 841, (R)-(4-(4-fluoropyrazolo[1,5-a]pyridin-2-yl)-6,7-dihydro-1H-imidazo[4,5-c]pyridin-5(4H)-yl)(1-methyl-1H-1,2,4-triazol-5-yl)methanone] |
| > 5000 nM | O=C(c1nnc(-c2cnn(CC(F)(F)F)c2)o1)N1CCc2[nH]cnc2[C@@H]1c1cc2ccccn2n1 [Example 647, (R)-(4-(pyrazolo[1,5-a]pyridin-2-yl)-6,7-dihydro-1H-imidazo[4,5-c]pyridin-5(4H)-yl)(5-(1-(2,2,2-trifluoroethyl)-1H-pyrazol-4-yl)-1,3,4-oxadiazol-2-yl)methanone] |
| < 500 nM | Cc1nc(C(C)(C)O)oc1C(=O)N1CCc2[nH]cnc2[C@H]1c1cc2c(C)cccn2n1 [Example 754, (S)-(2-(2-hydroxypropan-2-yl)-4-methyloxazol-5-yl)(4-(4-methylpyrazolo[1,5-a]pyridin-2-yl)-6,7-dihydro-1H-imidazo[4,5-c]pyridin-5(4H)-yl)methanone] |

Second part, the compound before the results:

| SMILES | AC50 |
| --- | --- |
| Cc1ncoc1C(=O)N1CCc2[nH]cnc2[C@@H]1c1cc2cccc(C)n2n1 [Example 1149, (R)-(4-methyloxazol-5-yl)(4-(7-methylpyrazolo[1,5-a]pyridin-2-yl)-6,7-dihydro-1H-imidazo[4,5-c]pyridin-5(4H)-yl)methanone] | 1000 to 5000 nM |
| Cc1cccc2cc([C@H]3c4nc[nH]c4CCN3C(=O)c3nnc(-c4ccn(C(F)F)n4)o3)nn12 [Example 937, (R)-(5-(1-(difluoromethyl)-1H-pyrazol-3-yl)-1,3,4-oxadiazol-2-yl)(4-(7-methylpyrazolo[1,5-a]pyridin-2-yl)-6,7-dihydro-1H-imidazo[4,5-c]pyridin-5(4H)-yl)methanone] | > 5000 nM |
| Cc1cccn2nc([C@@H]3c4nc[nH]c4CCN3C(=O)c3nnc(-c4cnccn4)o3)cc12 [Example 957, (S)-(4-(4-methylpyrazolo[1,5-a]pyridin-2-yl)-6,7-dihydro-1H-imidazo[4,5-c]pyridin-5(4H)-yl)(5-(pyrazin-2-yl)-1,3,4-oxadiazol-2-yl)methanone] | < 500 nM |
| Cn1ncnc1C(=O)N1CCc2[nH]cnc2[C@H]1c1cc2c(C(F)(F)F)cccn2n1 [Example 1044, (S)-(1-methyl-1H-1,2,4-triazol-5-yl)(4-(4-(trifluoromethyl)pyrazolo[1,5-a]pyridin-2-yl)-6,7-dihydro-1H-imidazo[4,5-c]pyridin-5(4H)-yl)methanone] | < 500 nM |
| CCOc1cccc2cc([C@@H]3c4nc[nH]c4CCN3C(=O)c3ocnc3C(F)F)nn12 [Example 1240, (S)-(4-(difluoromethyl)oxazol-5-yl)(4-(7-ethoxypyrazolo[1,5-a]pyridin-2-yl)-6,7-dihydro-1H-imidazo[4,5-c]pyridin-5(4H)-yl)methanone] | < 500 nM |
